# Experiments:
# [1] = system: middle cerebral artery occlusion model rats; assay: Neuroprotective effect in middle cerebral artery occlusion model (MCAo), TTC staining of brain slices; format: in vivo, Sprague-Dawley (SD) rats; conditions: intravenous right after ischemia induction: Clinoleic20% 200 mg/kg, SMOFlipid20% 500 mg/kg, oleic acid 100 mg/kg, sodium oleate solution 3 mg/kg, TTC staining 24 hours after reperfusion
# Experimental: 8 week-old adult male Sprague-Dawley (SD) rats, obtained from Samtako (Korea), weighing 300 g were kept in an environment to adapt to the experimental environment while providing enough feed and water. After one week of adaptation period, the animals were used for the following experiments.
# In detail, a nylon suture (4-0, 22 mm) was prepared by silicone coating about 5-8 mm of the end of the suture to have 0.36 mm of diameter, and was used for experiment. The rats prepared in Experimental Example 1.1 were anesthetized with 5% of isoflurane in a mixture of gas (i.e. 70% N2O and 30% O2). A syringe was inserted in one side for blood collection and a probe was inserted in the other side to measure blood pressure. Then the blood glucose level and the blood gas level in the collected blood were measured.
# Through midline neck incision, right carotid artery and external carotid artery (ECA), which are branches of external carotid artery, were separated. […]
# 24 hours after the reperfusion, the animals were sacrificed by cervical spine dislocation. […] The files were stored in a computer, and the infarct area (%) in each tissue slice was calculated according to the following equation 1 by using an analysis program (i.e. Optimas 6.5, Bioscan). The adjusted volume of the infarct area was calculated through following Equation 2. […]
# [2] = system: middle cerebral artery occlusion model rats; assay: Safety evaluation: death rate of experimental animals in the middle cerebral artery occlusion model; format: in vivo, Sprague-Dawley (SD) rats; conditions: MCAo rats, from the time of administration until sacrifice; intravenous: oleic acid 100 mg/kg, sodium oleate solution 3 mg/kg, Clinoleic20% 200 mg/kg, SMOFlipid20% 500 mg/kg
# Experimental: Right after degenerative brain disease induction, death rate was calculated by counting number of dead animals in every group from the time of administration until they were sacrificed.
# [3] = system: erythroclasis (hemolysis); conditions: cited from earlier work
# [4] = system: transient local cerebral ischemia rat model; conditions: cited from earlier work
Compound,TTC-unstained area (neuronal cell death) of brain slices compared to the control group [1],Death Rate (%) [2],Number of Dead Animals [2],erythroclasis (hemolysis) in an in vitro test [3],protective / neuroprotective efficacy [4]
"CCCCCCCC/C=C\CCCCCCCC(=O)O [Oleic Acid, oleic acid]",less TTC-unstained area,18.1%,21,incurs erythroclasis (hemolysis),superior neuroprotective efficacy
"CCCCCCCC/C=C\CCCCCCCC(=O)[O-].[Na+] [Sodium Oleate, sodium oleate]",less TTC-unstained area,21.6%,8,,

# From patent US11617774B2, “Composition for preventing or treating stroke or degenerative brain disease” (UNIVERSITY-INDUSTRY COOPERATION GROUP OF KYUNG HEE …, priority 2013, dated 2023)
